# Experimental data reported in US20110009421A1, “COMPOUND HAVING 6-MEMBERED AROMATIC RING” (TAKEDA PHARMACEUTICAL COMPANY LIMITED, priority 2008, published 2011).
# Where a name gives a salt, the structure may show the parent alone.
# Target: T1, human GPR52 (Homo sapiens, UniProt Q9Y2T5)
# T1 construct: expressed in transfected cells; host or cells: CHO (dhfr-) cells
# Test: Increased intracellular cAMP levels in human GPR52 expression CHO cells (AlphaScreen cAMP assay)
# Format: cell-based
# Conditions: 1 μM test compound, 30 min at 37° C., human GPR52 expression CHO (dhfr−) cells; intracellular cAMP level, 100% = 1 μM 3-(6-(2-(3,4-dimethoxyphenyl)ethoxy)pyridin-2-yl)-N-(2-pyrrolidin-1-ylethyl)benzamide, 0% = DMSO
# Protocol: Increased Intracellular cAMP Levels in Human GPR52 Expression CHO Cells
# 1×10^4 human GPR52 expression CHO (dhfr−) cells were incubated with 1 μM test compound for 30 min at 37° C. in 30 μL assay buffer (HBSS (containing Ca^2+ and Mg^2+), 0.5% BSA, 100 μM IBMX, 100 μM Ro 20-1724, 5 mM HEPES (pH 7.55)) using an OptiPlate-384 (by PerkinElmer). The intracellular cAMP level was then assayed with an EnVision (by PerkinElmer) according to the protocol of the AlphaScreen cAMP Assay Kit (by PerkinElmer). The GPR52 agonist activity was calculated, assuming the intracellular cAMP level to be 100% in the presence of 1 μM of 3-(6-(2-(3,4-dimethoxyphenyl)ethoxy)pyridin-2-yl)-N-(2-pyrrolidin-1-ylethyl)benzamide obtained in Reference Example 39 and assuming the intracellular cAMP level to be 0% when DMSO was added instead of test compound.
# T1 sequence (Q9Y2T5 whole entry): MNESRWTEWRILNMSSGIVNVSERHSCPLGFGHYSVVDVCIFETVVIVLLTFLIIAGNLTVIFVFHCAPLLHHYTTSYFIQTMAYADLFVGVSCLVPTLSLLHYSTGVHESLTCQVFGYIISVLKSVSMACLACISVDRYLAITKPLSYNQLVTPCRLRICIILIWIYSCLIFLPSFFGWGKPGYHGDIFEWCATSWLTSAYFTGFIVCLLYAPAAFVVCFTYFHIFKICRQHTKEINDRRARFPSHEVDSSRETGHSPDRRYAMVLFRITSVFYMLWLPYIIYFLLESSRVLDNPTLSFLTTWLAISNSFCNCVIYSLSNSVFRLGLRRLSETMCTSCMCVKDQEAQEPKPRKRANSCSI
row,Structure (SMILES),GPR52 agonist activity (%)
1,"COc1ccc(CCOc2nccc(-c3cccc(C(=O)NCCN4CCCC4)c3)n2)cc1OC [Working Example 46, 3-(2-(2-(3,4-Dimethoxyphenyl)ethoxy)pyrimidin-4-yl)-N-(2-pyrrolidin-1-ylethyl)benzamide]",99%
2,"COc1cccc(CCOc2cccc(-c3cccc(C(=O)Nc4ccc(F)nc4)c3)n2)c1 [Working Example 75, N-(6-Fluoropyridin-3-yl)-3-(6-(2-(3-methoxyphenyl)ethoxy)pyridin-2-yl)benzamide]",60%
3,"COc1ccc(CCOc2ccnc(-c3cccc(C(=O)NCCN4CCCC4)c3)n2)cc1OC [Working Example 45, 3-(4-(2-(3,4-Dimethoxyphenyl)ethoxy)pyrimidin-2-yl)-N-(2-pyrrolidin-1-ylethyl)benzamide]",85%
4,"COc1ccc(CCNc2nccc(-c3cccc(NC(=O)CCN(C)C)c3)n2)cc1OC [Working Example 29, N-(3-(2-((2-(3,4-dimethoxyphenyl)ethyl)amino)pyrimidin-4-yl)phenyl)-N^3,N^3-dimethyl-β-alaninamide]",85%
5,"COc1ccc(CCNc2nccc(-c3cccc(C(=O)N(C)CCCN(C)C)c3)n2)cc1OC [Working Example 37, 3-(2-(2-(3,4-Dimethoxyphenyl)ethylamino)pyrimidin-4-yl)-N-(3-dimethylaminopropyl)-N-methylbenzamide hydrochloride]",92%
6,"O=C(Nc1nccs1)c1cccc(-c2cccc(OCCc3cccc(F)c3)n2)c1 [Working Example 61, 3-(6-(2-(3-Fluorophenyl)ethoxy)pyridin-2-yl)-N-1,3-thiazol-2-ylbenzamide]",43%
7,"COc1ccc(CCNc2nccc(-c3cccc(NC(=O)CC4CCCN4)c3)n2)cc1OC (stereo not shown) [Working Example 25, N-(3-(2-((2-(3,4-Dimethoxyphenyl)ethyl)amino)pyrimidin-4-yl)phenyl)-2-pyrrolidin-2-yl acetamide hydrochloride]",71%
8,"COc1ccc(CCNc2nccc(-c3cccc(NC(C)=O)c3)n2)cc1OC [Working Example 1, N-(3-(2-(2-(3,4-dimethoxyphenyl)ethylamino)pyrimidin-4-yl)phenyl)acetamide]",69%
9,"CC(C)(CO)NC(=O)c1cccc(-c2cccc(Oc3cc(Cl)cc(Cl)c3)n2)c1 [Working Example 91, 3-(6-(3,5-Dichlorophenoxy)pyridin-2-yl)-N-(2-hydroxy-1,1-dimethylethyl)benzamide]",61%
10,"COc1cccc(CCOc2cccc(-c3cccc(C(=O)NC4CCOCC4)c3)n2)c1 [Working Example 67, 3-(6-(2-(3-Methoxyphenyl)ethoxy)pyridin-2-yl)-N-(tetrahydro-2H-pyran-4-yl)benzamide]",48%
11,"O=C(NCCN1CCCC1)c1cccc(-c2cccc(Oc3cccc(Cl)c3Cl)n2)c1 [Working Example 83, 3-(6-(2,3-Dichlorophenoxy)pyridin-2-yl)-N-(2-pyrrolidin-1-ylethyl)benzamide]",97%
12,"COc1cccc(C(=O)Nc2cccc(-c3ccnc(NCCc4ccc(OC)c(OC)c4)n3)c2)c1 [Working Example 12, N-(3-(2-(2-(3,4-dimethoxyphenyl)ethylamino)pyrimidin-4-yl)phenyl)-3-methoxybenzamide]",47%
13,"COc1ccc(CCOc2cc(-c3cccc(C(=O)NCCN4CCCC4)c3)ccn2)cc1OC [Working Example 42, 3-(2-(2-(3,4-Dimethoxyphenyl)ethoxy)pyridin-4-yl)-N-(2-pyrrolidin-1-ylethyl)benzamide]",71%
14,"COc1cccc(CCOc2cccc(-c3cccc(C(=O)NCCO)c3)n2)c1 [Working Example 69, N-(2-hydroxyethyl)-3-(6-(2-(3-methoxyphenyl)ethoxy)pyridin-2-yl)benzamide]",65%
15,"COc1ccc(CCOc2cccc(-c3cccc(C(=O)NCCN4CCCC4)c3)c2)cc1OC [Working Example 40, 3′-(2-(3,4-Dimethoxyphenyl)ethoxy)-N-(2-pyrrolidin-1-ylethyl)biphenyl-3-carboxamide]",87%
16,"COc1ccc(CCNc2nccc(-c3cccc(NC(=O)CC4CCCN4C)c3)n2)cc1OC (stereo not shown) [Working Example 28, N-(3-(2-((2-(3,4-dimethoxyphenyl)ethyl)amino)pyrimidin-4-yl)phenyl)-2-(1-methylpyrrolidin-2-yl)acetamide hydrochloride]",74%
17,COc1ccc(CCOc2cccc(-c3cccc(NC(=O)NCCN(C)C)c3)n2)cc1OC [Working Example 53],113%
18,"COc1ccc(CCOc2cccc(-c3cccc(C(=O)NC4CCOCC4)c3)n2)cc1OC [Working Example 41, 3-(6-(2-(3,4-Dimethoxyphenyl)ethoxy)pyridin-2-yl)-N-(tetrahydro-2H-pyran-4-yl)benzamide]",56%
19,"O=C(NCCN1CCCC1)c1cccc(-c2cccc(Oc3ccc(Cl)c(Cl)c3)n2)c1 [Working Example 82, 3-(6-(3,4-Dichlorophenoxy)pyridin-2-yl)-N-(2-pyrrolidin-1-ylethyl)benzamide]",64%
20,"COc1ccc(CCNc2nccc(-c3cccc(NC(=O)C4CCNCC4)c3)n2)cc1OC [Working Example 22, N-(3-(2-((2-(3,4-dimethoxyphenyl)ethyl)amino)pyrimidin-4-yl)phenyl)piperidine-4-carboxamide hydrochloride]",80%
21,"COc1ccc(CCNc2nccc(-c3cccc(NC(=O)CCCN4CCCCC4)c3)n2)cc1OC [Working Example 31, N-(3-(2-(2-(3,4-Dimethoxy-phenyl)ethylamino)pyrimidin-4-yl)phenyl)-4-(piperidin-1-yl)butanamide]",98%
22,"O=C(NCCO)c1cccc(-c2cccc(Oc3cc(Cl)cc(Cl)c3)n2)c1 [Working Example 87, 3-(6-(3,5-dichlorophenoxy)pyridin-2-yl)-N-(2-hydroxyethyl)benzamide]",79%

# Next, values leading:
row,GPR52 agonist activity (%),Structure (SMILES)
1,113%,COc1ccc(CCNc2nccc(-c3cccc(C(=O)NCCN4CCCC4)c3)n2)cc1OC [Working Example 141]
2,85%,COc1ccc(CCOc2cccc(-c3cccc(C(=O)NCCc4ccncc4)c3)n2)cc1OC [Working Example 201]
3,53%,"O=C(NCCO)c1cccc(-c2cccc(Sc3ccc(Cl)cc3Cl)n2)c1 [Working Example 101, 3-(6-((2,4-dichlorophenyl)thio)pyridin-2-yl)-N-(2-hydroxyethyl)benzamide]"
4,66%,"C[S+]([O-])CCNC(=O)c1cccc(-c2cccc(Oc3cc(Cl)cc(Cl)c3)n2)c1 (stereo not shown) [Working Example 96, 3-(6-(3,5-dichlorophenoxy)pyridin-2-yl)-N-(2-(methylsulfinyl)ethyl)benzamide]"
5,97%,COc1ccc(CCOc2cccc(-c3cccc(C(=O)NCCCn4ccnc4)c3)n2)cc1OC [Working Example 203]
6,64%,O=C(NCCN1CCCC1)c1cccc(-c2ccnc(NCCc3cccs3)n2)c1 [Working Example 152]
7,79%,COc1ccc(CCOc2cccc(-c3cccc(C(=O)NCCCO)c3)n2)cc1OC [Working Example 170]
8,107%,O=C(NCCN1CCCC1)c1cccc(-c2ccnc(NCCc3ccc(F)c(Cl)c3)n2)c1 [Working Example 164]
9,48%,"N#CCCNC(=O)c1cccc(-c2cccc(Oc3cncc(Cl)c3)n2)c1 [Working Example 134, 3-(6-((5-Chloropyridin-3-yl)oxy)pyridin-2-yl)-N-(2-cyanoethyl)benzamide]"
10,58%,COc1ccc(CCOc2cccc(-c3cccc(NC(=O)[C@@H]4CSC(=O)N4)c3)n2)cc1OC [Working Example 245]
11,94%,COc1ccc(CCOc2cccc(-c3cccc(C(=O)Nc4ccccn4)c3)n2)cc1OC [Working Example 219]
12,82%,COc1ccc(CCOc2cccc(-c3cccc(NC(=O)CC4NCCc5ccccc54)c3)n2)cc1OC (stereo not shown) [Working Example 318]
13,72%,O=C(NCCN1CCCC1)c1cccc(-c2ccnc(NCCc3cccc(F)c3)n2)c1 [Working Example 143]
14,68%,CNC(=O)c1cccc(-c2cccc(OCCc3ccc(OC)c(OC)c3)n2)c1 [Working Example 167]
15,58%,"C[C@H](CC#N)NC(=O)c1cccc(-c2cccc(Oc3cc(Cl)cc(Cl)c3)n2)c1 [Working Example 94, N-((1R)-2-Cyano-1-methylethyl)-3-(6-(3,5-dichlorophenoxy)pyridin-2-yl)benzamide]"
16,68%,O=C(NCCN1CCCC1)c1cccc(-c2ccnc(NCCc3ccc(Cl)c(F)c3)n2)c1 [Working Example 165]
17,65%,COc1ccc(CCOc2cccc(-c3cccc(C(=O)Nc4ccc5ncccc5c4)c3)n2)cc1OC [Working Example 227]
18,135%,"O=C(NCCN1CCCC1)c1cccc(-c2ccnc(NCCc3cccc(C(F)(F)F)c3)n2)c1 [Working Example 146, N-(2-pyrrolidin-1-ylethyl)-3-[2-({2-[3-(trifluoromethyl)phenyl]ethyl}amino)pyrimidin-4-yl]benzamide]"
